Here are results for four compounds from PMC3228261 (Chemistry (Weinheim an der Bergstrasse, Germany), 2011).

One data set concerns L-929 mouse fibroblasts. The experiment in a line: MTT test, growth inhibition of L-929 mouse fibroblasts. In kind it is cell-based. The settings on record: read-out: IC50 (L929), 5 d incubation, MTT assay. (In general: Tetrazolium assays rely on reduction of a dye to a coloured formazan, in cell work by metabolically active cells.)
The test system of data set [1] is human primary foreskin fibroblast (HFF) cells. The following applies: read-out: EC50 (HFF), viable cells after 72 h, triplicates.
Data set [2] has the same test system. The experiment in a line: cells. The settings on record: 72 h, read-out: EC50 (HFF).
Another data set in a line: in vitro. The following applies: human.

Read-outs that look alike come from different tables or passages of the source.

For orientation: IC50 means the midpoint of a concentration-inhibition curve. What is called EC50 is the concentration at which the effect is half-maximal. For the compound `CO[C@@H]1C(=O)O[C@H](C)[C@H](C)/C=C(\C)C[C@H](C)C(=O)N[C@@H](C)C(=O)N(C)[C@H](Cc2c[nH]c3ccccc23)C(=O)N[C@H]1c1ccc(O)cc1` [chon A_np (2a), chondramide A], the IC50 with L-929 mouse fibroblasts amounted to 56 ± 13 nM. For the same compound, the EC50 in data set [1] amounted to 118 ± 23 nM. For `CO[C@@H]1C(=O)O[C@H](C)[C@@H](C)C=C(C)C[C@H](C)C(=O)N[C@@H](C)C(=O)N(C)[C@H](Cc2c(Cl)[nH]c3ccccc23)C(=O)NC1c1ccc(O)cc1` (stereo partly drawn) [chon B_np (3), chondramide B], in data set [1], the 50% effective concentration (EC50) was 44 ± 5 nM. For `C/C1=C\[C@@H](C)[C@@H](C)OC(=O)C[C@H](c2ccc(O)cc2)NC(=O)[C@@H](Cc2c[nH]c3ccccc23)N(C)C(=O)[C@H](C)NC(=O)[C@@H](C)C1` [chon C_np (4), chondramide C], the EC50 in data set [1] stood at 36 ± 7 nM. In the case of `C/C1=C\[C@H](C)C[C@H](C)OC(=O)C[C@H](c2ccc(O)cc2)NC(=O)[C@@H](Cc2c(Br)[nH]c3ccccc23)N(C)C(=O)[C@H](C)NC(=O)[C@@H](C)C1` [jasplakinolide_np (1), jasplakinolide], in data set [2], the EC50 worked out at 28 ± 4 nM. The compound also registered an EC50 at 72 h in the data set “in vitro” of about 30 nM.
